Measured values taken from US20040248887A1, “Inhibitors of cathepsin S” (IRM LLC, priority 2003, published 2004).

Biological target: Cathepsin S (Homo sapiens, UniProt P25774)
Test: Cathepsin S inhibition, fluorogenic peptide substrate kinetic assay
Format: biochemical
Conditions: Table II; Cathepsin S inhibition constant, pH5.5; read-out: Ki Cat. S
From the text: “Inhibition constant”, Ki, is the dissociation constant of the enzyme-inhibitor complex, or the reciprocal of the binding affinity of the inhibitor to the enzyme. […] The inhibited rates are then fit by nonlinear regression to the following equation: [formula]
where vo is the initial rate of substrate processing in the absence of inhibitor, v; is the initial rate of substrate processing at a concentration [I] of inhibitor, Km is the steady state Michaelis constant (Fersht, A. Structure and Mechanism in Protein Science. New York, W.H. Freeman and Company, 1999), and [S] is the concentration of competitive substrate.
The assumption being made for the classical inhibition described above is that the free inhibitor concentration is equal to the total inhibitor concentration.
The inhibition constant, Ki, can be determined from the apparent inhibition constant, Ki^app, for competitive inhibitors by using the following relationship: [formula]
The optimal substrate for cathepsin S, acetyl-histidine-proline-valine-lysine-amino carbamoyl coumarin, was identified from screening a combinatorial library of fluorogenic peptide substrates (Harris, J. L., B. J. Backes, et al., Proc Natl Acad Sci USA 2000, 97(14), 7754-9). Kinetic measurements are performed in a total reaction volume of 30 μl in 384-well microtiter plates. […] The reactions are initiated by adding the substrate, acetyl-histidine-proline-valine-lysine-amino carbamoyl coumarin, to a final concentration of 50 μM. The rate of substrate hydrolysis is measured by monitoring the increase in fluorescence at an excitation wavelength of 380 nm and an emission wavelength of 450 nm that results from cleavage of the aniline bond in the substrate by the enzyme. The apparent inhibition constants for the compounds are determined from the enzyme progress curves (Kuzmic, P., K. C. Elrod, et al., Anal Biochem 2000, 286(1), 45-50) and are then used to calculate the inhibition constants for competitive inhibitors.

Chain of Cathepsin S (P25774 115-331, species assumed): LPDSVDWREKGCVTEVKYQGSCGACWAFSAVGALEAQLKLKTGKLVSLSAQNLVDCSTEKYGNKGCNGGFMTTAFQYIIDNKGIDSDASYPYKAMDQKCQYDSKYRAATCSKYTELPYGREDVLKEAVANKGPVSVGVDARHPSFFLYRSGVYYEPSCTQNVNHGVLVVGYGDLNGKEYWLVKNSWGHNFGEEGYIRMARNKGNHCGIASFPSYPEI

Ki [µM] | SMILES
< 1 | O=C(NCCN1CCc2cc(F)ccc21)[C@H](CC1CCCCC1)NS(=O)(=O)c1ccc(OC(F)F)cc1 [Compound 240, (S)-3-Cyclohexyl-2-(4-difluoromethoxy-benzenesulfonylamino)-N-[2-(5-fluoro-2,3-dihydro-indol-1-yl)-ethyl]-propionamide]
< 0.1 | C[C@@H](CNc1cccc(F)c1)NC(=O)[C@H](CC1CCCCC1)NC(=O)c1ccc(-c2cccc(F)c2)o1 [Compound 99, 5-(3-Fluoro-phenyl)-furan-2-carboxylic acid {2-cyclohexyl-1-(S)-[2-(3-fluoro-phenylamino)-1-(S)-methyl-ethylcarbamoyl]-ethyl}-amide]
< 10 | COc1ccc(NC(C)CNC(=O)[C@H](CC(C)C)NC(=O)c2cccc(C)c2)cc1 (mixture of isomers) [Compound 20, N-{1-(S)-[2-(4-Methoxy-phenylamino)-propylcarbamoyl]-3-methyl-butyl}-3-methyl-benzamide]
< 0.1 | C[C@@H](CNc1ccc(OC(F)(F)F)cc1)NC(=O)[C@H](CC1CCCCC1)NC(=O)[C@H]1CCCO1 [Compound 30, Tetrahydrofuran-2-(R)-carboxylic acid {2-cyclohexyl-1-(S)-[1-(S)-methyl-2-(4-trifluoromethoxy-phenylamino)-ethylcarbamoyl]-ethyl}-amide]
< 0.1 | C[C@@H](CNc1ccc(OC(F)(F)F)cc1)NC(=O)[C@H](CC(C)(C)C)NC(=O)c1ccc(-c2cccc(F)c2)o1 [Compound 127, 5-(3-Fluoro-phenyl)-furan-2-carboxylic acid {3,3-dimethyl-1-(S)-[1-(S)-methyl-2-(4-trifluoromethoxy-phenylamino)-ethylcarbamoyl]-butyl}-amide]
< 0.1 | O=C(N[C@@H](CC1CCCCC1)C(=O)NCCN1CCc2cc(F)ccc21)c1ccoc1 [Compound 13, Furan-3-carboxylic acid (S)-{2-cyclohexyl-1-[2-(5-fluoro-2,3-dihydro-indol-1-yl)-ethylcarbamoyl]-ethyl}-amide]
< 0.1 | O=C(N[C@@H](CC1CCCCC1)C(=O)N[C@@H](COCc1ccccc1)CN1CCc2cc(F)ccc21)c1ccc(-c2cccc(C(F)(F)F)c2)o1 [Compound 152, 5-(3-Trifluoromethyl-phenyl)-furan-2-carboxylic acid {1-(S)-[1-(R)-benzyloxymethyl-2-(5-fluoro-2,3-dihydro-indol-1-yl)-ethylcarbamoyl]-2-cyclohexyl-ethyl}-amide]
< 1 | Cc1cccc(S(=O)(=O)N[C@@H](CC(C)(C)C)C(=O)N[C@@H](CC(=O)OC(C)(C)C)CN2CCc3cc(F)ccc32)c1 [Compound 252, (S,S)-3-[4,4-Dimethyl-2-(toluene-3-sulfonylamino)-pentanoylamino]-4-(5-fluoro-2,3-dihydro-indol-1-yl)-butyric acid tert-butyl ester]
< 0.1 | C[C@@H](CN1CCc2cc(F)ccc21)NC(=O)[C@H](CC(C)(C)C)NC(=O)c1ccnnc1 [Compound 178, Pyridazine-4-carboxylic acid {1-(S)-[2-(5-fluoro-2,3-dihydro-indol-1-yl)-1-(S)-methyl-ethylcarbamoyl]-3,3-dimethyl-butyl}-amide]
< 0.1 | CC(C)(C)C[C@H](NC(=O)OC(C)(C)C)C(=O)N[C@@H](CCS(C)(=O)=O)CN1CCc2cc(F)ccc21 [Compound 157, {1-(S)-[1-(S)-(5-Fluoro-2,3-dihydro-indol-1-ylmethyl)-3-methanesulfonyl-propylcarbamoyl]-3,3-dimethyl-butyl}-carbamic acid tert-butyl ester]
< 1 | Cc1cccc(C(=O)N[C@@H](Cc2cccc(Cl)c2)C(=O)NCCN2CCc3cc(F)ccc32)c1 [Compound 197, N-((S)-1-(2-(5-fluoroindolin-1-yl)ethylcarbamoyl)-2-(3-chlorophenyl)ethyl)-3-methylbenzamide]
< 1 | O=C(N[C@@H](CC1CCCCC1)C(=O)NCCN1CCc2cc(F)ccc21)C1CCN(S(=O)(=O)c2ccccc2)CC1 [Compound 58, 1-Benzenesulfonyl-piperidine-4-carboxylic acid (S)-{2-cyclohexyl-1-[2-(5-fluoro-2,3-dihydro-indol-1-yl)-ethylcarbamoyl]-ethyl}-amide]
< 1 | Cc1cc(NC[C@H](C)NC(=O)[C@H](CC2CCCCC2)NC(=O)c2ccc(-c3cccc(F)c3)o2)on1 [Compound 247, 5-(3-Fluoro-phenyl)-furan-2-carboxylic acid {2-cyclohexyl-1-(S)-[1-(S)-methyl-2-(3-methyl-isoxazol-5-ylamino)-ethylcarbamoyl]-ethyl}-amide]
< 1 | CC(C)(C)C[C@H](NC(=O)OCc1ccccc1)C(=O)N[C@@H](CC(=O)OC(C)(C)C)CN1CCc2cc(F)ccc21 [Compound 158, 3-(S)-(2-(S)-Benzyloxycarbonylamino-4,4-dimethyl-pentanoylamino)-4-(5-fluoro-2,3-dihydro-indol-1-yl)-butyric acid tert-butyl ester]
< 0.1 | C[C@@H](C(=O)N[C@@H](CCC1CCCCC1)C(=O)NCCN1CCc2cc(F)ccc21)c1ccccc1 [Compound 102, 4-Cyclohexyl-N-[2-(5-fluoro-2,3-dihydro-indol-1-yl)-ethyl]-2-(S)-(2-(R)-phenyl-propionylamino)-butyramide]
< 10 | Cc1cccc(C(=O)N[C@@H](Cc2ccccc2)C(=O)NC(C)(C)CN2CCc3cc(F)ccc32)c1 [Compound 28, N-{(1S)-[2-(5-Fluoro-2,3-dihydro-indol-1-yl)-1,1-dimethyl-ethylcarbamoyl]-2-phenyl-ethyl}-3-methyl-benzamide]
< 1 | O=C(NCCN1CCc2cc(F)ccc21)[C@H](CC1CCCCC1)NS(=O)(=O)c1cc(Cl)c(Cl)s1 [Compound 258, (S)-3-Cyclohexyl-2-(4,5-dichloro-thiophene-2-sulfonylamino)-N-[2-(5-fluoro-2,3-dihydro-indol-1-yl)-ethyl]-propionamide]
< 0.1 | C[C@@H](CN1CCc2cc(F)ccc21)NC(=O)[C@H](CC1CCCCC1)NS(=O)(=O)c1cccc(Cl)c1 [Compound 259, (S,S)-2-(3-Chloro-benzenesulfonylamino)-3-cyclohexyl-N-[2-(5-fluoro-2,3-dihydro-indol-1-yl)-1-methyl-ethyl]-propionamide]
< 1 | Cc1cccc(C(=O)N[C@H](C(=O)NCCN2CCc3cc(F)ccc32)C2CCCCC2)c1 [Compound 193, N-((S)-(2-(5-fluoroindolin-1-yl)ethylcarbamoyl)(cyclohexyl)methyl)-3-methylbenzamide]
< 0.1 | COc1cccc(C(=O)N[C@@H](CCC2CCCCC2)C(=O)N[C@@H](CCCCN)CN2CCc3cc(F)ccc32)c1 [Compound 167, N-{1-(S)-[5-Amino-1-(S)-(5-fluoro-2,3-dihydro-indol-1-ylmethyl)-pentylcarbamoyl]-3-cyclohexyl-propyl}-3-methoxy-benzamide]
< 0.1 | O=C(NC(C(=O)N[C@@H](CO)CN1CCc2cc(F)ccc21)c1ccc(Cl)cc1Cl)c1ccc(F)c(F)c1 (mixture of isomers) [Compound 208, N-(R,S)-((3-(5-fluoroindolin-1-yl)-1-hydroxypropan-2-(R)-ylcarbamoyl)(2,4-dichlorophenyl)methyl)-3,4-difluorobenzamide]
< 1 | O=C(N[C@@H](Cc1ccccc1)C(=O)NCCN1CCc2cc(F)ccc21)c1ccc(-c2cccc(C(F)(F)F)c2)o1 [Compound 206, N-((S)-1-(2-(5-fluoroindolin-1-yl)ethylcarbamoyl)-2-phenylethyl)-5-(3-(trifluoromethyl)phenyl)furan-2-carboxamide]
< 1 | C[C@@H](CNc1cc(Cl)ccc1F)NC(=O)[C@H](CC1CCCCC1)NC(=O)c1ccc(-c2cccc(F)c2)o1 [Compound 97, 5-(3-Fluoro-phenyl)-furan-2-carboxylic acid {1-(S)-[2-(5-chloro-2-fluoro-phenylamino)-1-(S)-methyl-ethylcarbamoyl]-2-cyclohexyl-ethyl}-amide]
< 1 | Cn1cnc(S(=O)(=O)N[C@@H](CC2CCCCC2)C(=O)NCCN2CCc3cc(F)ccc32)c1 [Compound 255, (S)-3-Cyclohexyl-N-[2-(5-fluoro-2,3-dihydro-indol-1-yl)-ethyl]-2-(1-methyl-1H-imidazole-4-sulfonylamino)-propionamide]
< 1 | O=C(NC(C(=O)NC(CO)CN1CCc2cc(F)ccc21)c1ccc(Cl)cc1Cl)c1ccco1 [Compound 212, N-(S)-((3-(5-fluoroindolin-1-yl)-1-hydroxypropan-2-(R)-ylcarbamoyl)(2,4-dichlorophenyl)methyl) furan-2-carboxamide]
< 0.1 | CS(=O)(=O)NCc1ccc(C(=O)N[C@@H](CC2CCCCC2)C(=O)NCCN2CCc3cc(F)ccc32)cc1 [Compound 79, N-(S)-{2-cyclohexyl-1-[2-(5-fluoro-2,3-dihydro-indol-1-yl)-ethylcarbamoyl]-ethyl}-4-(methanesulfonylamino-methyl)-benzamide]
